Data as given in US11583507B2, “Direct AMPK activator compounds” (SOCIETE DES PRODUITS NESTLE S.A., priority 2018, dated 2023).

What was measured:
AMPKα2β1γ1 (211) = biological target: T1, AMPKα2β1γ1 (211) (Homo sapiens, UniProt P54619+P54646+Q9Y478); test: AMPK in vitro activity assay (HTRF-KinEASE), phosphorylated bacterially-expressed complex; format: biochemical; conditions: fold activation vs complex without compound; 30 mins incubation
T1 construct: His; made in house; host or cells: bacteria
Protocol: (§1) Lusianthridin (CAS 87530-30-1) was isolated from Thunia alba fruit. It was sourced from Analyticon (NP-012362). The plant was purchased through Analyticon's biomaterial supplier in 2003. The country of origin is Nepal. The AMPK heterotrimers were expressed in bacteria and purified through the His-α subunit by nickel purification. AMPK complexes were purified through gel filtration and phosphorylated by incubation with CaMKKβ, and further purified with a final gel filtration purification step. Phosphorylated purified AMPK was incubated with varying concentrations of ligand for 30 mins using substrate and reagents from the HTRF-KinEASE Cisbio assay kit (STK S1 Kit). Phosphorylation of the substrate was measured by incubating with donor and acceptor antibodies for 2 h at room temperature as per the manufacturer's protocol (and Coulerie et al., (2016) PMID: 27792327) and phosphorylated peptide detected by performing HTRF. The 665 nm/620 nm ratio was determined and the results are plotted as fold activation compared to the respective AMPK complex without any compound.

AMPK α2β2γ1 (221) = biological target: T2, AMPK α2β2γ1 (221) (Homo sapiens, UniProt O43741+P54619+P54646); test: AMPK in vitro activity assay (HTRF-KinEASE), β2-containing complex; format: biochemical; conditions: fold activation vs complex without compound
T2 construct: His; made in house; host or cells: bacteria
Protocol: as §1

[1] = system: AMPK α2β1γ1 ΔCBM mutant (211 ΔCBM); test: AMPK in vitro activity assay (HTRF-KinEASE), ΔCBM mutant; format: biochemical; conditions: carbohydrate-binding module deleted
Protocol: as §1

[2] = biological target: T3, AMPK α2β1γ1 S108A mutant (211 S108A) (Homo sapiens, UniProt P54619+P54646+Q9Y478, S108A); test: AMPK in vitro activity assay (HTRF-KinEASE), β1 S108A mutant; format: biochemical
T3 construct: His; made in house; host or cells: bacteria
Protocol: as §1

AMPK substrate, ACC = test: pACC HTRF assay in mouse primary hepatocytes; format: cell-based; conditions: 1 h incubation at 37 C, dose-dependent
Protocol: Hepatocyte isolation: The liver was first perfused with 50 ml perfusion buffer (Krebs-Hepes buffer with […] EDTA), followed with 50 ml collagenase A buffer (Krebs-Hepes buffer with 5 mM CaCl2 and 0.5 mg/ml collagenase). […] Hepatocytes were left to attach (3-4 h) and cultured overnight in M199 supplemented with antibiotics and 100 nM dexamethasone. Cells were used for experiments the following morning. Primary hepatocytes were seeded at 15 K cells in a 96-well plate overnight. Cells were treated for 1 h with varying concentrations of Lusianthridin in media and then cells were lysed in 50 μl of Cisbio lysis buffer #1 supplemented with blocking solution as per the manufacturer's protocol (Cisbio). Cells were lysed for 30 mins at room temperature before 16 μl of lysate was incubated with 4 μl of the HTRF antibodies. Lysates were incubated overnight with the antibody before 665 nm/620 nm ratio was determined using a MolecularDevices i3 plate reader (with a HTRF cartridge add-on).

primary hepatocytes = test: Lipogenesis ([1-14C]-acetate incorporation into fatty acids) in primary hepatocytes; format: cell-based, mouse; conditions: 1 h at 37 C, varying concentrations
Protocol: Hepatocyte isolation: The liver was first perfused with 50 ml perfusion buffer (Krebs-Hepes buffer with […] EDTA), followed with 50 ml collagenase A buffer (Krebs-Hepes buffer with 5 mM CaCl2 and 0.5 mg/ml collagenase). […] Hepatocytes were left to attach (3-4 h) and cultured overnight in M199 supplemented with antibiotics and 100 nM dexamethasone. Cells were used for experiments the following morning. For primary hepatocyte isolation see Example 4. For lipogenesis measurements in primary hepatocytes, cells were seeded at 600 K cells per well in a 6-well plate overnight. Media was replaced with fresh M199 media alone for 2 hours prior to incubation with varying concentrations of Lusianthridin for 1 h at 37 C, in the presence of [1-^14C]-acetate. The incorporation of [^14C] into fatty acids was determined in the lower organic layer after separation from the aqueous phase. […] Lipogenesis is controlled by the AMPK substrate ACC, and phosphorylation and inhibition of ACC by AMPK, leads to a decrease in lipogenesis. Lipogenesis was measured in primary hepatocytes by determining the incorporation of ^14C-labelled acetate into fatty acids. Lipogenesis was monitored in the presence or absence of varying concentrations of Lusianthridin for 1 h at 37 C. […] This observation is consistent with its ability to activate AMPK in hepatocytes, which leads to the phosphorylation and inhibition of ACC.

[3] = system: differentiated C2C12 cells; test: Glucose uptake (3H-2-deoxyglucose) into differentiated C2C12 cells; format: cell-based; conditions: Lusianthridin 100 μM for 4 h at 37 C
Protocol: C2C12 cells were maintained in DMEM GlutaMAX supplemented with 10% (vol/vol) FBS and 100 U/ml penicillin G, and 100 μg/ml streptomycin. C2C12 myoblasts were differentiated into myotubes by 7 days of culture in DMEM GlutaMAX supplemented with 2% (vol/vol) horse serum and antibiotics. Cells were transferred to serum-free media for 24 hours, before equilibrating with bicarbonate-free medium prior to treatment. Cells were treated with Control (DMSO 1% final concentration) or 100 μM Lusianthridin in the presence of ^3H-2-deoxyglucose (in Krebs-Hepes buffer containing sodium pyruvate). Cells were lysed and the quantity of ^3H determined in these samples using a scintillation counter.
Activation of AMPK in muscle cells has been previously shown to increase glucose uptake. […] Differentiated C2C12 cells were treated with either control or 100 μM Lusianthridin for 4 h at 37 C. Glucose uptake was determined by monitoring the uptake of ^3H-2-deoxyglucose into cells. […] This is consistent with the important role of AMPK in mediating glucose uptake in muscle.

[4] = system: AMPK β1 WT (phosphorylation of ACC); test: pACC (HTRF and western blot) in AMPKβ1/β2 double knockout U2-OS Flp-In T-Rex cells stably expressing β1 WT; format: cell-based, human
Excerpt: AMPKβ1/β2 double knockout U2-OS Flp-In™ T-Rex™ cell lines were generated by Horizon Discovery (Cambridge, UK). Cells were genotyped and analysed by western blotting to confirm that there was a complete knockout of AMPKβ1/β2. We took these AMPKβ1/β2 double knockout cells, and re-introduced the expression of human β1 wild-type (WT) or a β1 Serine 108 to alanine mutation (S108A). This was achieved using the Flp-In™ system (Invitrogen) present in this cell line and stable cells expressing β1 WT or a β1 S108A mutant were generated according to the manufacturers' protocols. Re-expression of the β1 subunit was confirmed by western blot analysis.
Cells stably expressing β1 WT or a β1 S108A mutant were treated with varying concentrations of Lusianthridin and subjected to the pACC HTRF (Cisbio) assay or western blot analysis to determine phosphorylation of the AMPK substrate, ACC, in cells lysates. Western blots were quantified using the LI-COR odyssey system and shown as the ratio of the antibody signal from pACC divided by total ACC.

T3 sequence (P54646 whole entry): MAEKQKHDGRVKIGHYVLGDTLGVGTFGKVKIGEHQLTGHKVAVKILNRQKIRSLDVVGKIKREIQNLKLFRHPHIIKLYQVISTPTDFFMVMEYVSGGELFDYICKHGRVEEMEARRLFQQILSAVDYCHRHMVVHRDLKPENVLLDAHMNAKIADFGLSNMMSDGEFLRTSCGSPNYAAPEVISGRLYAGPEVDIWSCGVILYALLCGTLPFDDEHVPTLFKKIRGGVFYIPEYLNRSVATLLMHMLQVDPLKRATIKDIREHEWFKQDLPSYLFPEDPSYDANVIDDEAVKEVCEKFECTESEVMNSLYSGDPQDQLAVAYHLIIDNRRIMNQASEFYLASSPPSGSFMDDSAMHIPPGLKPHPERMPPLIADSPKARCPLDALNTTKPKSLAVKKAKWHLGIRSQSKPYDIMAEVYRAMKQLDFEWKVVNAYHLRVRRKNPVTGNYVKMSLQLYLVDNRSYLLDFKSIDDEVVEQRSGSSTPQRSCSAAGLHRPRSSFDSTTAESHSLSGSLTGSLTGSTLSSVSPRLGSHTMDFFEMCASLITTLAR
T3 sequence (Q9Y478 whole entry S108A): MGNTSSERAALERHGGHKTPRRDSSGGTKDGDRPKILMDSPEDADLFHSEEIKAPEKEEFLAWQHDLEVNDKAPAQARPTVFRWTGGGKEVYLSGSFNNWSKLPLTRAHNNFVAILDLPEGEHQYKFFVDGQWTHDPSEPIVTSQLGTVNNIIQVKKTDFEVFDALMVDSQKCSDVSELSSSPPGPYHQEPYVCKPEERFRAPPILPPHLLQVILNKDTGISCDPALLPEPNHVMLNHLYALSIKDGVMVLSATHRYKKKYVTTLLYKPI
T3 sequence (P54619 whole entry): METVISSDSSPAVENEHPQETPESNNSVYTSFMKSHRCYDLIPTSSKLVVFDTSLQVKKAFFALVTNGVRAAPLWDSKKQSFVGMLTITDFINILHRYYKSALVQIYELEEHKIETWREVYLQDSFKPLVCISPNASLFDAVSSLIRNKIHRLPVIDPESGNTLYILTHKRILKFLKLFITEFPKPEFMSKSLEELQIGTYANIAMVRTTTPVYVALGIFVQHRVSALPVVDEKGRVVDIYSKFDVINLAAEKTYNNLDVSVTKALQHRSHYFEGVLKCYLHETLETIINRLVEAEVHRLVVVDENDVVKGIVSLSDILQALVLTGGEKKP
T1 sequence (P54646 whole entry): as the sequence (P54646 whole entry) above
T1 sequence (Q9Y478 whole entry): as the sequence (Q9Y478 whole entry S108A) above, with A108S counted along it
T1 sequence (P54619 whole entry): as the sequence (P54619 whole entry) above
T2 sequence (P54646 whole entry): as the sequence (P54646 whole entry) above
T2 sequence (O43741 whole entry): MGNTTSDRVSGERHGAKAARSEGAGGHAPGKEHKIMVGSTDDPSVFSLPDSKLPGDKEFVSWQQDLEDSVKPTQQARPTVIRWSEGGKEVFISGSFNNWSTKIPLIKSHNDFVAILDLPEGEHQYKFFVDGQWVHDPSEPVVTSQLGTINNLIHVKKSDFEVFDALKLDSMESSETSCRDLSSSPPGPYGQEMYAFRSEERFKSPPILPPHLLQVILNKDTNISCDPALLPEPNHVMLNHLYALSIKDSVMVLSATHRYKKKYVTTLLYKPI
T2 sequence (P54619 whole entry): as the sequence (P54619 whole entry) above

SMILES: COc1cc(O)c2c(c1)CCc1cc(O)ccc1-2 [Lusianthridin, 7-Methoxy-9,10-dihydrophenanthrene-2,5-diol]
- activation of bacterially-expressed AMPKα2β1γ1 complexes (AMPKα2β1γ1 (211)): Activates
- activation of β2-containing AMPK complexes (α2β2γ1) (AMPK α2β2γ1 (221)): does not activate
- activation of α2β1γ1 ΔCBM mutant [1]: does not activate
- activation of AMPK complexes with the β1 S108A mutation [2]: does not activate
- phosphorylation of the AMPK substrate ACC (pACC HTRF) (AMPK substrate, ACC): increases
- rate of lipogenesis (DPM per μg of protein) (primary hepatocytes): inhibit lipogenesis in a dose-dependent manner
- fold increase in glucose uptake relative to control [3]: ~2 fold
- pACC (HTRF and western blot, pACC/total ACC) ([4]; FIGS. 19 and 20): dose-dependently increase pACC
- pACC (HTRF assay) ([4]; varying concentrations, 30 mins at 37 C): capable of activating
